Assay [1] addresses isolated recombinant JAK1 kinase domain (Homo sapiens (Human), UniProt P23458). The experiment in a line: JAK1 enzyme assay (Caliper LabChip, peptide phosphorylation). In kind it is biochemical. The conditions noted are these: isolated recombinant JAK1 kinase domain, 25 μM ATP.
In assay [2] the target is isolated recombinant JAK2 kinase domain (Homo sapiens (Human), UniProt O60674). The experiment in a line: JAK2 enzyme assay (Caliper LabChip, peptide phosphorylation). The class given is biochemical. The conditions noted are these: 25 μM ATP.
isolated recombinant JAK2 kinase domain, sequence (O60674 849-1124): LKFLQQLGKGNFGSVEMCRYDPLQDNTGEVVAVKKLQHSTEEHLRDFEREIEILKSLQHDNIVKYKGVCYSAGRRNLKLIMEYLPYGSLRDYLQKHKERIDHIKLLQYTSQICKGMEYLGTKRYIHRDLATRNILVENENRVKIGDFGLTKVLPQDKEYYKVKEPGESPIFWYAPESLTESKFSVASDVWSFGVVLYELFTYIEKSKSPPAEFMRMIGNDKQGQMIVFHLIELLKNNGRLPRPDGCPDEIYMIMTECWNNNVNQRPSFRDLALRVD
Assay [3] relates to JAK1-dependent STAT6 phosphorylation downstream of IL-13 stimulation in BEAS-2B human bronchial epithelial cells. The experiment in a line: JAK1 pathway assay in BEAS-2B cells (IL-13-pSTAT6, MSD). In kind it is cell-based. The note with it: read-out: IL13-pSTAT6 EC50 (uM)_BEAS-2B. The essentials:
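Cells were preincubated with compounds (0.2% DMSO) for 30 min (TF-1, GM-CSF-starved overnight, serum-free OptiMEM, 300,000 cells/well) or 1 h (BEAS-2B, complete medium, 100,000 cells/well) at 37 °C.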

Where a name gives a salt, the structure may show the parent alone.

isolated recombinant JAK1 kinase domain, sequence (P23458 875-1153): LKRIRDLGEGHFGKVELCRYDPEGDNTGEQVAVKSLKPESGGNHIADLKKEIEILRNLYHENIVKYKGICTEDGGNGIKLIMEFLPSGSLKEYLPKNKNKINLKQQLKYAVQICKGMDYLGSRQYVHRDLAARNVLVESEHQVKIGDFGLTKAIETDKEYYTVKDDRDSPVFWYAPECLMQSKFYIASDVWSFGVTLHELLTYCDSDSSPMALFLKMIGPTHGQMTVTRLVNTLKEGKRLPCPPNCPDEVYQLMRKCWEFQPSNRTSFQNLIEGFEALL

On to `O=C1CN(C2CCN(C(=O)Cn3cc(NC(=O)c4cnn5cccnc45)c(-c4cc(Cl)ccc4OC(F)F)n3)CC2)CCN1` [Example 407, N-(3-(5-chloro-2-(difluoromethoxy)phenyl)-1-(2-oxo-2-(4-(3-oxopiperazin-1-yl)piperidin-1-yl)ethyl)-1H-pyrazol-4-yl)pyrazolo[1,5-a]pyrimidine-3-carboxamide], for which the Ki in assay [1] came to 0.36 nM; in assay [2], 0.71 nM. Also, the EC50 in assay [3] worked out at 0.172 µM.

On to `O=C1CCC(CN2CCN(C(=O)Cn3cc(NC(=O)c4cnn5cccnc45)c(-c4cc(Cl)ccc4OC(F)F)n3)CC2)O1` (stereo not drawn) [Example 382, N-[3-[5-chloro-2-(difluoromethoxy)phenyl]-1-(2-oxo-2-[4-[(5-oxooxolan-2-yl)methyl]piperazin-1-yl]ethyl)-1H-pyrazol-4-yl]pyrazolo[1,5-a]pyrimidine-3-carboxamide], for which the Ki is 0.34 nM in assay [1] and 0.75 nM in assay [2]. Besides, the EC50 in assay [3] came to 0.0257 µM.

As to `CSc1ccc(CNCCn2cc(NC(=O)c3cnn4cccnc34)c(-c3cc(Cl)ccc3OC(F)F)n2)cc1` [Example 346, N-[3-[5-chloro-2-(difluoromethoxy)phenyl]-1-[2-([[4-(methylsulfanyl)phenyl]methyl]amino)ethyl]-1H-pyrazol-4-yl]pyrazolo[1,5-a]pyrimidine-3-carboxamide formate], the values for the Ki in assay [1] and in assay [2] were 0.37 nM and 0.31 nM, respectively. In addition, in assay [3], the EC50 stood at 0.115 µM.

In the case of `COC(=O)CN1CCN(C(=O)Cn2cc(NC(=O)c3cnn4cccnc34)c(-c3cc(Cl)ccc3OC(F)F)n2)CC1` [Example 322, methyl 2-[4-(2-[3-[5-chloro-2-(difluoromethoxy)phenyl]-4-[pyrazolo[1,5-a]pyrimidine-3-amido]-1H-pyrazol-1-yl]acetyl)piperazin-1-yl]acetate], the Ki in assay [1] stood at 0.31 nM; in assay [2] it was 0.8 nM. Further, in assay [3], the EC50 worked out at 0.0411 µM.

Consider `O=C(Nc1cn(Cc2cn(C3CCNCC3)nn2)nc1-c1cc(Cl)ccc1OC(F)F)c1cnn2cccnc12` [Example 452, N-(3-(5-chloro-2-(difluoromethoxy)phenyl)-1-((1-(piperidin-4-yl)-1H-1,2,3-triazol-4-yl)methyl)-1H-pyrazol-4-yl)pyrazolo[1,5-a]pyrimidine-3-carboxamide], for which the Ki in assay [1] came to 0.71 nM; in assay [2] it was 0.65 nM. In addition, the EC50 in assay [3] is 0.0809 µM.

Take `CCOC(=O)C1(C)CCN(CCN2CCN(C(=O)Cn3cc(NC(=O)c4cnn5cccnc45)c(-c4cc(Cl)ccc4OC(F)F)n3)CC2)CC1` [Example 337, ethyl 1-[2-[4-(2-[3-[5-chloro-2-(difluoromethoxy)phenyl]-4-[pyrazolo[1,5-a]pyrimidine-3-amido]-1H-pyrazol-1-yl]acetyl)piperazin-1-yl]ethyl]-4-methylpiperidine-4-carboxylate formate]: the Ki in assay [1] is 0.83 nM; in assay [2] it was 2.52 nM. Besides, the EC50 in assay [3] stood at 0.0232 µM.

In the case of `O=C(Nc1cn(CC(=O)N2CCC(N3CCCOCC3)CC2)nc1-c1cc(Cl)ccc1OC(F)F)c1cnn2cccnc12` [Example 441, N-(1-(2-(4-(1,4-oxazepan-4-yl)piperidin-1-yl)-2-oxoethyl)-3-(5-chloro-2-(difluoromethoxy)phenyl)-1H-pyrazol-4-yl)pyrazolo[1,5-a]pyrimidine-3-carboxamide], the Ki stood at 0.52 nM in assay [1] and 1.48 nM in assay [2]. For the same compound, the EC50 in assay [3] was determined as 0.0084 µM.

Consider `O=C(Nc1cn(CCNCc2ccccc2O)nc1-c1cc(Cl)ccc1OC(F)F)c1cnn2cccnc12` [Example 326, N-[3-[5-chloro-2-(difluoromethoxy)phenyl]-1-(2-[[(2-hydroxyphenyl)methyl]amino]ethyl)-1H-pyrazol-4-yl]pyrazolo[1,5-a]pyrimidine-3-carboxamide], for which the Ki in assay [1] was found to be 0.21 nM; in assay [2] it was 0.28 nM. Also, in assay [3], the EC50 was 0.007 µM.

In the case of `O=C(Nc1cn(C/C=C/CN2CCOCC2)nc1-c1cc(Cl)ccc1OC(F)F)c1cnn2cccnc12` [Example 394, N-[3-[5-chloro-2-(difluoromethoxy)phenyl]-1-[(2E)-4-(morpholin-4-yl)but-2-en-1-yl]-1H-pyrazol-4-yl]pyrazolo[1,5-a]pyrimidine-3-carboxamide], the Ki in assay [1] was found to be 0.87 nM; in assay [2] it was 0.61 nM. Also, in assay [3], the EC50 turned out to be 0.0311 µM.

In the case of `O=C(Nc1cn(CC(=O)N2CCN(CCN3CCSCC3)CC2)nc1-c1cc(Cl)ccc1OC(F)F)c1cnn2cccnc12` [Example 460, N-(3-(5-chloro-2-(difluoromethoxy)phenyl)-1-(2-oxo-2-(4-(2-thiomorpholinoethyl)piperazin-1-yl)ethyl)-1H-pyrazol-4-yl)pyrazolo[1,5-a]pyrimidine-3-carboxamide], the Ki in assay [1] was found to be 0.39 nM; in assay [2] it was 1.1 nM. The EC50 in assay [3] worked out at 0.0068 µM.

Regarding `O=C(Nc1cn([C@H]2CCNC[C@@H]2O)nc1-c1cc(Cl)ccc1OC(F)F)c1cnn2cccnc12` [Example 359, N-[3-[5-chloro-2-(difluoromethoxy)phenyl]-1-[(3S,4S)-3-hydroxypiperidin-4-yl]-1H-pyrazol-4-yl]pyrazolo[1,5-a]pyrimidine-3-carboxamide], the figures for the Ki in assay [1] and in assay [2] were 3.85 nM and 2.7 nM, respectively. In addition, the EC50 in assay [3] turned out to be 0.0309 µM.

For the compound `O=C1CC(N2CCN(C(=O)Cn3cc(NC(=O)c4cnn5cccnc45)c(-c4cc(Cl)ccc4OC(F)F)n3)CC2)CCO1` (stereo not drawn) [Example 347, N-[3-[5-chloro-2-(difluoromethoxy)phenyl]-1-[2-oxo-2-[4-(2-oxooxan-4-yl)piperazin-1-yl]ethyl]-1H-pyrazol-4-yl]pyrazolo[1,5-a]pyrimidine-3-carboxamide], the values for the Ki in assay [1] and in assay [2] were 0.39 nM and 0.76 nM, respectively. For the same compound, in assay [3], the EC50 stood at 0.0307 µM.

As to `CCOC(=O)CN1CCC(n2cc(NC(=O)c3cnn4cccnc34)c(-c3cc(Cl)ccc3OC(F)F)n2)CC1` [Example 366, ethyl 2-(4-[3-[5-chloro-2-(difluoromethoxy)phenyl]-4-[pyrazolo[1,5-a]pyrimidine-3-amido]-1H-pyrazol-1-yl]piperidin-1-yl)acetate], the Ki in assay [1] was found to be 1.07 nM; in assay [2] it was 0.99 nM. For the same compound, in assay [3], the EC50 amounted to 0.312 µM.

Regarding `O=C(Nc1cn(CCNCc2ncco2)nc1-c1cc(Cl)ccc1OC(F)F)c1cnn2cccnc12` [Example 367, N-[3-[5-chloro-2-(difluoromethoxy)phenyl]-1-[2-[(1,3-oxazol-2-ylmethyl)amino]ethyl]-1H-pyrazol-4-yl]pyrazolo[1,5-a]pyrimidine-3-carboxamide], the values for the Ki in assay [1] and in assay [2] were 0.83 nM and 0.5 nM, respectively. For the same compound, in assay [3], the EC50 stood at 0.0352 µM.

In the case of `CNC(=O)[C@@H]1CCCN1C1CCN(C(=O)Cn2cc(NC(=O)c3cnn4cccnc34)c(-c3cc(Cl)ccc3OC(F)F)n2)CC1` [Example 426, N-(3-(5-chloro-2-(difluoromethoxy)phenyl)-1-(2-(4-((S)-2-(methyl-carbamoyl)pyrrolidin-1-yl)piperidin-1-yl)-2-oxoethyl)-1H-pyrazol-4-yl)pyrazolo[1,5-a]pyrimidine-3-carboxamide], the figures for the Ki in assay [1] and in assay [2] were 0.53 nM and 1.25 nM, respectively. Besides, the EC50 in assay [3] came out at 0.0394 µM.

In general, Ki refers to the dissociation constant of the complex between target and ligand, obtained from inhibition or displacement. One may read the EC50 as the concentration giving half of the maximal effect.

These data come from patent US9346815B2, “5-chloro-2-difluoromethoxyphenyl pyrazolopyrimidine compounds, compositions and methods of use thereof” (Genentech, Inc., priority 2014, dated 2016).
